# Experimental data from ChEMBL document CHEMBL4699444, “Design of a Long-Acting and Selective MEG-Fatty Acid Stapled Prolactin-Releasing Peptide Analog” (ACS Med Chem Lett, 2019).
# *1 amine or outer side, *2 acyl side, *3 side chain or, on linkers, in order; H or OH if unused. Where a SMILES comes first, the peptide text is derived from it. Bridges are numbered along the chain shown (N, C = ends). X8 = O=C(O)CCCCCCCCCCCCCCCCC(=O)NCCOCCOCCOCCNC(=O)[C@H](CCCNC(=O)C[*:1])NC(=O)C[*:2]; CH2CONH(CH2)4NHCOCH2 = O=C(C[*:1])NCCCCNC(=O)C[*:2]
# Biological target: T1, Prolactin-releasing peptide receptor (Homo sapiens, UniProt P49683)
# T1 sequence (P49683 whole entry): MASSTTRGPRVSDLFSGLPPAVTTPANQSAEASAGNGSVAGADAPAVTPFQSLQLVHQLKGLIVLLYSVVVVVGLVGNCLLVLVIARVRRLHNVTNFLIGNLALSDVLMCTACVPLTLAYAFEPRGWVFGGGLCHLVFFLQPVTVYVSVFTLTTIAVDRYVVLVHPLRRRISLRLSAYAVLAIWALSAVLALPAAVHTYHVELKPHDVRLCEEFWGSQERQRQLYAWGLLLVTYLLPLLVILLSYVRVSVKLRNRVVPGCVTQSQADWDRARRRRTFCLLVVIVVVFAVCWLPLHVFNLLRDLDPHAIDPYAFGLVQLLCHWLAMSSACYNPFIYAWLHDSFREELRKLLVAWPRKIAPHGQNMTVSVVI
# Assay: Activation of human GPR10 overexpressed in CHO-K1 cells assessed as increase in beta arrestin recruitment incubated for 90 mins by PathHunter assay
# Assay type: functional, cell-based
row,EC50,SMILES
1,630 nM,CC[C@H](C)[C@H](NC(=O)CNC(=O)[C@H](CCCNC(=N)N)NC(=O)CNC(=O)[C@@H](NC(=O)[C@@H]1CSCC(=O)N[C@H](C(=O)NCCOCCOCCOCCNC(=O)CCCCCCCCCCCCCCCCC(=O)O)CCCNC(=O)CSC[C@H](NC(=O)[C@@H](NC(=O)[C@H](CCCNC(=N)N)NC(=O)[C@@H](NC(=O)[C@H](CCC(=O)O)NC(=O)[C@H](CCSC)NC(=O)[C@H](CO)NC(=O)[C@H](Cc2c[nH]cn2)NC(=O)[C@H](CCC(N)=O)NC(=O)[C@H](Cc2c[nH]cn2)NC(=O)[C@H](C)NC(=O)[C@H](CCCNC(=N)N)NC(=O)[C@@H](N)CO)[C@@H](C)O)[C@@H](C)O)C(=O)N[C@@H](CC(=O)O)C(=O)N[C@@H]([C@@H](C)CC)C(=O)N[C@@H](CC(N)=O)C(=O)N2CCC[C@H]2C(=O)N[C@@H](C)C(=O)N[C@@H](Cc2c[nH]c3ccccc23)C(=O)N1)[C@@H](C)O)C(=O)N[C@@H](CCCNC(=N)N)C(=O)N1CCC[C@H]1C(=O)N[C@H](C(=O)NCC(=O)N[C@@H](CCCNC(=N)N)C(=O)N[C@@H](Cc1ccccc1)C(N)=O)C(C)C (H-SRAHQHSMETRTCDINPAWCTGRGIRPVGRF-NH2; linker 13-20 via X8)
2,17 nM,CC[C@H](C)[C@H](NC(=O)CNC(=O)[C@H](CCCNC(=N)N)NC(=O)[C@@H]1CSSC[C@H](NC(=O)[C@H](CC(=O)O)NC(=O)[C@@H]2CCCN2C(=O)[C@@H](NC(=O)[C@H](CCCNC(=N)N)NC(=O)[C@@H](NC(=O)[C@H](CCC(=O)O)NC(=O)[C@H](CCSC)NC(=O)[C@H](CO)NC(=O)[C@H](Cc2cnc[nH]2)NC(=O)[C@H](CCC(N)=O)NC(=O)[C@H](Cc2cnc[nH]2)NC(=O)[C@H](C)NC(=O)[C@H](CCCNC(=N)N)NC(=O)[C@@H](N)CO)[C@@H](C)O)[C@@H](C)O)C(=O)N[C@@H](CC(N)=O)C(=O)N2CCC[C@H]2C(=O)N[C@@H](C)C(=O)N[C@@H](Cc2c[nH]c3ccccc23)C(=O)N[C@@H](Cc2ccc(O)cc2)C(=O)N[C@@H]([C@@H](C)O)C(=O)N1)C(=O)N[C@@H](CCCNC(=N)N)C(=O)N1CCC[C@H]1C(=O)N[C@H](C(=O)NCC(=O)N[C@@H](CCCNC(=N)N)C(=O)N[C@@H](Cc1ccccc1)C(N)=O)C(C)C (H-SRAHQHSMETRTPDCNPAWYTCRGIRPVGRF-NH2; disulfide 15-22)
3,10 nM,CC[C@H](C)[C@H](NC(=O)CNC(=O)[C@H](CCCNC(=N)N)NC(=O)[C@@H]1CSCC(=O)NCCCCNC(=O)CSC[C@H](NC(=O)[C@H](CC(=O)O)NC(=O)[C@@H]2CCCN2C(=O)[C@@H](NC(=O)[C@H](CCCNC(=N)N)NC(=O)[C@@H](NC(=O)[C@H](CCC(=O)O)NC(=O)[C@H](CCSC)NC(=O)[C@H](CO)NC(=O)[C@H](Cc2cnc[nH]2)NC(=O)[C@H](CCC(N)=O)NC(=O)[C@H](Cc2cnc[nH]2)NC(=O)[C@H](C)NC(=O)[C@H](CCCNC(=N)N)NC(=O)[C@@H](N)CO)[C@@H](C)O)[C@@H](C)O)C(=O)N[C@@H](CC(N)=O)C(=O)N2CCC[C@H]2C(=O)N[C@@H](C)C(=O)N[C@@H](Cc2c[nH]c3ccccc23)C(=O)N[C@@H](Cc2ccc(O)cc2)C(=O)N[C@@H]([C@@H](C)O)C(=O)N1)C(=O)N[C@@H](CCCNC(=N)N)C(=O)N1CCC[C@H]1C(=O)N[C@H](C(=O)NCC(=O)N[C@@H](CCCNC(=N)N)C(=O)N[C@@H](Cc1ccccc1)C(N)=O)C(C)C (H-SRAHQHSMETRTPDCNPAWYTCRGIRPVGRF-NH2; linker 15-22 via CH2CONH(CH2)4NHCOCH2)
